Laboratory results reported in US20030229044A1, “Use of statins and other immunomodulatory agents in the treatment of autoimmune disease” (priority 2002, published 2003).
Entries after “also recorded” stand apart in the source; their conditions may differ.

Tests used:
[1] = system: MOG p35-55-induced EAE in C57BL/6 mice; assay: MOG p35-55-induced chronic EAE in C57BL/6 mice; type: in vivo, mouse
Source text: (§1) Animals. Female SJL/J, B10.PL and C57BL/6 mice (8 to 12-week-old) were purchased from the Jackson Laboratory (Bar Harbor, Me.). MBP Ac 1-11 transgenic (tg) TCR mice were backcrossed with B10.PL mice to obtain susceptibility to EAE. All animal protocols were approved by the Division of comparative Medicine at Stanford and in accordance with the National Institutes of Health guidelines.
(§2) Peptides. Peptides were synthesized on a peptide synthesizer (model 9050; MilliGen, Burlington, Mass.) by standard 9-fluorenylmethoxycarbonyl chemistry. Peptides were purified by HPLC. Structures were confirmed by amino acid analysis and mass spectroscopy.
(§3) EAE Induction. Relapsing remitting EAE was induced in SJL/J mice with 100 μg of PLP139-151 peptide, chronic progressive EAE was induced either in C57BL/6 or MBP Ac1-11 TCR Tg mice with 100 μg of MOG35-55 peptide or 100 μg of MBP Ac1-11 peptide, respectively. All peptides were dissolved in PBS at a concentration of 2 mg/ml and emulsified with an equal volume of CFA, which consists of incomplete Freund's adjuvant supplemented with 4 mg/ml heat-killed mycobacterium tuberculosis H37Ra (Difco Laboratories, Detroit, Mich.). […] Mice were clinically scored as follows: 0, no paralysis; 1, tail weakness or paralysis; 2, hindlimb weakness or paralysis; 3, hindlimb paralysis and forelimb weakness; 4, hindlimb and forelimb paralysis; and 5, moribund or death. […]

[2] = system: PLP p139-151-induced EAE in SJL/J mice; assay: PLP p139-151-induced chronic relapsing EAE in SJL/J mice; type: in vivo, mouse
Source text: as §1, §2, §3

[3] = system: MBP Ac1-11-induced EAE in MBP Ac1-11 TCR Tg mice; assay: MBP Ac1-11-induced acute EAE in MBP Ac1-11 Tg mice; type: in vivo, mouse
Source text: as §1, §2
EAE Induction. […] All peptides were dissolved in PBS at a concentration of 2 mg/ml and emulsified with an equal volume of CFA, which consists of incomplete Freund's adjuvant supplemented with 4 mg/ml heat-killed mycobacterium tuberculosis H37Ra (Difco Laboratories, Detroit, Mich.). Mice were injected subcutaneously with 0.1 ml of the peptide emulsion. […] Mice were clinically scored as follows: 0, no paralysis; 1, tail weakness or paralysis; 2, hindlimb weakness or paralysis; 3, hindlimb paralysis and forelimb weakness; 4, hindlimb and forelimb paralysis; and 5, moribund or death. […]

[4] = system: PLP p139-151-stimulated spleen and lymph node cells; assay: Ag specific ex-vivo T cell proliferation assay; type: cell-based, mouse
Source text: Ag specific ex-vivo T cell proliferation assay.

[5] = system: lymph node cells and spleen cells from EAE donors; assay: Cytokine profile determination by ELISA; type: cell-based, mouse
Experimental: Cytokine Profile Determination. Lymph node cells and spleen cells from EAE donors were stimulated in vitro (2.5×10^6 cells/ml) in 24-well plates with or without the encephalogenic peptide or with […] as positive control. Cell culture supernatants were collected at different time points for measurements of cytokine levels: 48 hours for IL-2, 72 hours for IFN-γ and TNF α, and 120 hours for IL-4 and IL-10. Cytokine levels were determined using specific ELISA kits for the corresponding cytokines according to the manufacturers protocols (PharMingen, San Diego, Calif., USA).

STAT6 = assay: Western blot for STAT6 phosphorylation in draining lymph node cells; type: in vivo, mouse; conditions: lymph nodes of SJL/J mice, 1 mg/kg and 10 mg/kg, 10 days after EAE induction; PBS: none detectable
Experimental: All procedures were handled on ice. As a positive control, lymph node cells from naive mice were isolated and cultured for one hour with mouse recombinant IL-4 (10 ng/ml) or INF-γ (100 units/ml), for STAT6 and STAT4 expression respectively. Protein concentrations were determined by BCA protein assay (Pierce). Lysate was added to 3×SDS loading buffer (Cell Signaling Technology) with 40 mM DTT. Products were separated by electrophoresis on a 4-15% SDS-PAGE gradient gel (BioRad). Pre-stained markers (Invitrogen) were used to determine MW. Gels were blotted to PVDF membranes at 100 V in 25 mM Tris, 192 mM glycine and 20% (v/v) methanol, then blocked 1 hr at RT with Tris-buffered saline (TBS) containing 0.1% Tween-20 and 5% nonfat dry milk. After washing in TBS and 0.1% Tween 20, membranes were hybridized overnight at 4° C. with anti-phospho-STAT6 Antibody or anti-phospho-STAT4 antibody (Zymed, South San Francisco, Calif.) diluted 1:1000 in TBS, 0.1% Tween 20 and 5% BSA, the membranes were then processed by ECL Plus prebetween protocol (Amersham Life Sciences) for visualization of the bands by chemiluminescence. […]

[6] = system: MHC II expression (CIITA p IV gene); conditions: through the effect on the CIITA p IV gene; cited from earlier work
NOD mice = conditions: as proteins, under tolerizing conditions; cited from earlier work
microglia and astrocytes = conditions: cited from earlier work
EAE in Lewis rats = assay: MBPp85-99-induced EAE in Lewis rats, ordered peptides; type: in vivo, rat; conditions: single intraperitoneal dose of 0.5 mg peptide on day of mean disease onset
Experimental: FIG. 8 is a graph depicting the prevention of EAE in rats treated with ordered peptides. […] Animals were injected with an emulsion of 0.1 mg of MBPp85-99 in complete Freund's adjuvant for EAE induction. Ten days later, when the clinical manifestations of disease became apparent, a single intra peritoneal dose of peptide {SEQ ID NO:4} […] (squares), {SEQ ID NO:5} […] (triangles), or PBS (circles) was administered. Results are expressed as mean disease score of groups of six animals.
Animals. Female Lewis rats (6-8 weeks old), were purchased from Harlan Sprague Dawley (Indianapolis, Ind.)
Peptides. For immunization and disease reversal, peptides were synthesized on a peptide synthesizer (model 9050: MilliGen, Burlington, Mass.) by standard 9-fuorenylmethoxycarbonyl chemistry. Peptides were purified by HPLC. Structure was confirmed by amino acid analysis and mass spectroscopy. Peptides used for the experiments were: {SEQ ID NO:11} […] (MBPp85 99), {SEQ ID NO:4} […], {SEQ ID NO:5} […].
EAE induction. […] Rats were injected subcutaneously with 0.1 mi of the peptide emulsion.
EAE treatment. Rats previously immunized with MBPp85-99 for EAE induction were scored from day eight after peptide injection. On the day of mean disease onset, animals were injected intraperitoneally with a solution of 0.5 mg of peptide in PBS (one dose of 0.25 ml).

[7] = ELISA, SJL/J mice, 1 and 10 mg/kg

CC(C)c1c(C(=O)Nc2ccccc2)c(-c2ccccc2)c(-c2ccc(F)cc2)n1CC[C@@H](O)C[C@@H](O)CC(=O)O [atorvastatin]
EAE (mean EAE score) ([1]; daily oral 1 mg/kg or 10 mg/kg starting at the time of EAE onset, C57Bl/6 female mice): suppressed EAE induction | EAE (mean EAE score) ([1]; treatment after onset, C57Bl/6 mice): ameliorated EAE | relapsing EAE (mean EAE score) ([2]; treatment at onset): effective in prevention of relapsing EAE | ongoing relapsing EAE (mean EAE score) ([2]; treatment begun after recovery from acute EAE): reversal of ongoing relapsing EAE | acute EAE progression [3]: successfully prevented acute EAE progression | PLP p139-151-specific proliferative responses ([4]; 3H-thymidine incorporation, SJL/J mice treated with 1 or 10 mg/kg): suppressed in a dose-related fashion | cell death ([4]; in vitro cultures of cells from treated mice): not observed increased cell death | secretion of IL-10 ([5]; ELISA, SJL/J mice): observed at the higher treatment dose | IL-4 production [5, 7]: induced at both treatment doses | Production of IL-2 [5, 7]: reduced, although to a much greater extent in mice treated with 10 mg/kg | secretion of IFN-γ ([5]; ELISA, SJL/J mice, both treatment doses): dramatic reduction | Th2 bias (proliferation and cytokines) ([5]; repeated in C57BL/6 and MBP Ac1-11-specific transgenic mice): promoted an almost identical Th2 bias | phosphorylated STAT6 (STAT6): phosphorylated STAT6 is seen | expression of MHC II [6]: could inhibit the expression of MHC II

insulin
diabetes in NOD mice (NOD mice): prevents disease

CC[C@H](C)C(=O)O[C@H]1C[C@@H](C)C=C2C=C[C@H](C)[C@H](CC[C@@H]3C[C@@H](O)CC(=O)O3)[C@H]21 [lovastatin]
production of iNOS and proinflammatory cytokines (microglia and astrocytes): inhibited production of nitric oxide synthase (iNOS) and proinflammatory cytokines (TNFα, IL-1β and IL-6)

EYYKEYYKEYYK [ordered peptide with repeated motif EYYK]
EAE in Lewis rats (mean disease score) (EAE in Lewis rats): effective in preventing and treating experimental autoimmune encephalomyelitis; also recorded: effectively prevent and treat EAE in Lewis rats; also recorded: prevents the development of EAE
